This passage reports EC50 results from patent publication US20250136606A1, “MODULATORS OF TRPML, THEIR COMPOSITIONS AND METHODS OF USE” (Caraway Therapeutics, Inc., priority 2021, published 2025).

What all share (format): cell-based
For test [1], the target named is TRPML1 (Homo sapiens, UniProt Q9GZU1). Description: Fluorescent TRPML1 assay (Fluo4-AM calcium fluorescence in doxycycline-induced HEK-293 Trex cells). The gist of the method:
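HEK-293 Trex cells stably carrying human TRPML1 (surface-trafficking mutant) were induced overnight with 0.5 ug/mL doxycycline, loaded with 1 micromolar Fluo4-AM, and suspended in Ringer's with 10 mM calcium. Compounds at 20 micromolar to 6 nanomolar final, half-log steps, triplicate; fluorescence 480/540 nm gave percent activity versus controls and EC50 by non-linear regression.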

For test [2], the target named is T1, TRPML2 (Homo sapiens, UniProt Q8IZK6).
T1 construct: expressed in transfected cells
T1 sequence (Q8IZK6 1-566): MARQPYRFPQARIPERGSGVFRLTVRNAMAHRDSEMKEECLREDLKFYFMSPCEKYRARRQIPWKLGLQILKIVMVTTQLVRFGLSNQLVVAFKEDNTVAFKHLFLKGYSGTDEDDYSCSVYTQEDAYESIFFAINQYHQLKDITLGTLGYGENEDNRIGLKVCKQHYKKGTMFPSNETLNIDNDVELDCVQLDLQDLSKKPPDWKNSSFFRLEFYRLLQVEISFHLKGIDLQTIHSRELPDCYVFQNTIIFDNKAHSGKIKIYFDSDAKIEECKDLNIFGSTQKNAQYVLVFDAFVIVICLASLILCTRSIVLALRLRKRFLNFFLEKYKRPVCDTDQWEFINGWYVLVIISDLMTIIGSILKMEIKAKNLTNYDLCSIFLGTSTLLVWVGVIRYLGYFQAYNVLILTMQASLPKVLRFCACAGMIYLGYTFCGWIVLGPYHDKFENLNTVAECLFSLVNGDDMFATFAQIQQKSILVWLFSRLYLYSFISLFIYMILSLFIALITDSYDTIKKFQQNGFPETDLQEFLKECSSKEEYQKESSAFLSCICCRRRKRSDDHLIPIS
As to the kind of experiment: Fluorescent TRPML2 assay (performed as for TRPML1, substituting the TRPML2 subtype). Put shortly: (§1)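 Agonist activity is scored as percent of plate controls from Fluo4 fluorescence after dye-loaded, doxycycline-induced HEK-293 Trex cells meet compound in high-calcium (10 mM) Ringer's. Compounds run in half-log dilutions from 20 micromolar final, in triplicate.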

In test [3] the target is T2, TRPML3 (Homo sapiens, UniProt Q8TDD5).
T2 construct: expressed in transfected cells
T2 sequence (Q8TDD5 1-553): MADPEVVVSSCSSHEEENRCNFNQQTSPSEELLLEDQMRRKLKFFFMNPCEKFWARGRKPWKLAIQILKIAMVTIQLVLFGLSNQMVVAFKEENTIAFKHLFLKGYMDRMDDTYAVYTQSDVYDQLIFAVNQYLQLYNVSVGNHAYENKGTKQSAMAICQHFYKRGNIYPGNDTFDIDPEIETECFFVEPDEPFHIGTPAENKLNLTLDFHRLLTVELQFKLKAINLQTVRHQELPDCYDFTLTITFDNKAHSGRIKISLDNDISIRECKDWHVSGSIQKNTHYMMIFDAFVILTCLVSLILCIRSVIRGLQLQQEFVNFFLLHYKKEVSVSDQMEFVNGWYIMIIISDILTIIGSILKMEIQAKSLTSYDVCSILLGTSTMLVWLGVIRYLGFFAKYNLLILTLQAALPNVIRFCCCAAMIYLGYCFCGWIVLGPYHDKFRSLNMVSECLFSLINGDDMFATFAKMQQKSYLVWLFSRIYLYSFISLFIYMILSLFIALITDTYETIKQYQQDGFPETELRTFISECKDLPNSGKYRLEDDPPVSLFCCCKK
As to the kind of experiment: Fluorescent TRPML3 assay (performed as for TRPML1, substituting the TRPML3 subtype). Put shortly:
as §1

Read-outs that look alike come from different tables or passages of the source.

Chain of TRPML1 (Q9GZU1 whole entry L15A/L16A/L577A/L578A, form open): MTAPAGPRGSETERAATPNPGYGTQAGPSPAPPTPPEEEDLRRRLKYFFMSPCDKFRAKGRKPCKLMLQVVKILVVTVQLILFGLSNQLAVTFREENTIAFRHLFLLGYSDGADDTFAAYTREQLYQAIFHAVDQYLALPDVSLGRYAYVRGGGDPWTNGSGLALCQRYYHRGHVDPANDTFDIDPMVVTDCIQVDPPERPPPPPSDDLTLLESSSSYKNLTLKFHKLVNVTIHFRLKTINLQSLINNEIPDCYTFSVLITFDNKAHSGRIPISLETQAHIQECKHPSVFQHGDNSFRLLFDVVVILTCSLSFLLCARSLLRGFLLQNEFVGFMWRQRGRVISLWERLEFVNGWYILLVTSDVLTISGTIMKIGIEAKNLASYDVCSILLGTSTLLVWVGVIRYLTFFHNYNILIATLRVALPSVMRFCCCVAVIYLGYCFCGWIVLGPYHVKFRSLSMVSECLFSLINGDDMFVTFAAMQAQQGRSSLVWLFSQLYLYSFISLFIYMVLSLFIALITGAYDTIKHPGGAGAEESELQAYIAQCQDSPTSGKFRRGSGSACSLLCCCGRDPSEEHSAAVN

In general, EC50 refers to the concentration that produces a half-maximal response. For `C[C@H]1CN(C(=O)OC(C)(C)C)CCN1c1ncnc2c1c(C1CC1)cn2C1CCCCC1` [Compound 326, tert-butyl (S)-4-(7-cyclohexyl-5-cyclopropyl-7H-pyrrolo[2,3-d]pyrimidin-4-yl)-3-methylpiperazine-1-carboxylate], the EC50 in test [1] (fluorescent calcium assay) is 100 to 500 nM; in test [2] (fluorescent calcium assay) it was more than 2000 nM; in test [3] (fluorescent calcium assay), less than 100 nM.
With `C[C@@H]1CN(c2ncnc3c2c(C2CC2)cn3-c2cc(Cl)cc(Cl)c2)CCN1C(=O)OC(C)(C)C` [Compound 111, tert-butyl (R)-4-(5-cyclopropyl-7-(3,5-dichlorophenyl)-7H-pyrrolo[2,3-d]pyrimidin-4-yl)-2-methylpiperazine-1-carboxylate], the results for the EC50 in test [1] (fluorescent calcium assay), in test [2] (fluorescent calcium assay) and in test [3] (fluorescent calcium assay) were less than 100 nM, 100 to 500 nM and less than 100 nM, respectively.
For the molecule `C[C@H]1CN(C(=O)OCC(F)(F)F)CCN1c1ncnc2c1c(-c1ccccc1)cn2-c1cc(C#N)ccn1` [Compound 371, 2,2,2-trifluoroethyl (S)-4-(7-(4-cyanopyridin-2-yl)-5-phenyl-7H-pyrrolo[2,3-d]pyrimidin-4-yl)-3-methylpiperazine-1-carboxylate], the EC50 in test [1] (fluorescent calcium assay) is less than 100 nM; in test [2] (fluorescent calcium assay), 500 to 2000 nM; in test [3] (fluorescent calcium assay) it was less than 100 nM.
As for `C[C@H]1CN(C(=O)OC(C)(C)C)CCN1c1ncnc2c1c(C1=CCOCC1)cn2-c1cccc(F)c1` [Compound 472, tert-butyl (S)-4-(5-(3,6-dihydro-2H-pyran-4-yl)-7-(3-fluorophenyl)-7H-pyrrolo[2,3-d]pyrimidin-4-yl)-3-methylpiperazine-1-carboxylate], the EC50 in test [1] (fluorescent calcium assay) fell in the range of 100 to 500 nM; in test [2] (fluorescent calcium assay), 500 to 2000 nM; in test [3] (fluorescent calcium assay), 100 to 500 nM.
Regarding `CC1CN(C(=O)OC(C)(C)C)CCN1c1ncnc2c1c(C1CCOCC1)cn2-c1cccc(Cl)c1` (stereo not drawn) [Compound 466, tert-butyl 4-(7-(3-chlorophenyl)-5-(tetrahydro-2H-pyran-4-yl)-7H-pyrrolo[2,3-d]pyrimidin-4-yl)-3-methylpiperazine-1-carboxylate], the EC50 in test [1] (fluorescent calcium assay) was less than 100 nM; in test [2] (fluorescent calcium assay), 500 to 2000 nM; in test [3] (fluorescent calcium assay), less than 100 nM.
Regarding `C[C@H]1CN(C(=O)OC(C)(C)C)CCN1c1ncnc2c1c(C1CC1)cn2-c1cc(F)cc(F)c1` [Compound 203, tert-butyl (S)-4-(5-cyclopropyl-7-(3,5-difluorophenyl)-7H-pyrrolo[2,3-d]pyrimidin-4-yl)-3-methylpiperazine-1-carboxylate], the values for the EC50 in test [1] (fluorescent calcium assay), in test [2] (fluorescent calcium assay) and in test [3] (fluorescent calcium assay) were less than 100 nM, 100 to 500 nM and less than 100 nM, respectively.
Turning to `C[C@@H]1CN(c2ncnc3c2c(C2CC2)cn3-c2cc(F)cc(Cl)c2)CCN1C(=O)OC(C)(C)C` [Compound 123, tert-butyl (R)-4-(7-(3-chloro-5-fluorophenyl)-5-cyclopropyl-7H-pyrrolo[2,3-d]pyrimidin-4-yl)-2-methylpiperazine-1-carboxylate], the values for the EC50 in test [1] (fluorescent calcium assay), in test [2] (fluorescent calcium assay) and in test [3] (fluorescent calcium assay) were less than 100 nM, 100 to 500 nM and less than 100 nM, respectively.
As to `C[C@@H]1CN(c2ncnc3c2c(C(F)(F)F)cn3-c2cccc(Cl)c2)[C@@H](C)CN1C(=O)OC(C)(C)C` [Compound 491, tert-Butyl (2R,5S)-4-(7-(3-chlorophenyl)-5-(trifluoromethyl)-7H-pyrrolo[2,3-d]pyrimidin-4-yl)-2,5-dimethylpiperazine-1-carboxylate], the EC50 in test [1] (fluorescent calcium assay) is less than 100 nM; in test [2] (fluorescent calcium assay), 100 to 500 nM; in test [3] (fluorescent calcium assay) it was less than 100 nM.
On to `CC(OC(=O)N1CCN(c2ncnc3c2c(-c2ccccc2F)cn3-c2cc(C#N)ccn2)[C@@H](C)C1)C(F)(F)F` (stereo partly drawn) [Compound 348, 1,1,1-trifluoropropan-2-yl (3S)-4-(7-(4-cyanopyridin-2-yl)-5-(2-fluorophenyl)-7H-pyrrolo[2,3-d]pyrimidin-4-yl)-3-methylpiperazine-1-carboxylate], for which the EC50 in test [1] (fluorescent calcium assay), in test [2] (fluorescent calcium assay) and in test [3] (fluorescent calcium assay) was less than 100 nM each time.
For `CC(C)(C)OC(=O)N1CCN(c2ncnc3c2c(N2CCCC2)cn3-c2cc(C#N)ccn2)C(C)(C)C1` [Compound 601, tert-butyl 4-(7-(4-cyanopyridin-2-yl)-5-(pyrrolidin-1-yl)-7H-pyrrolo[2,3-d]pyrimidin-4-yl)-3,3-dimethylpiperazine-1-carboxylate], the EC50 in test [1] is less than 100 nM; in test [2] it was 100 to 500 nM; in test [3] it was less than 100 nM.
Consider `C[C@@H]1CN(c2ncnc3c2c(N2CCCC2)cn3-c2cc(F)c(F)c(F)c2)CCN1C(=O)OC(C)(C)C` [Compound 362, tert-butyl (R)-2-methyl-4-(5-(pyrrolidin-1-yl)-7-(3,4,5-trifluorophenyl)-7H-pyrrolo[2,3-d]pyrimidin-4-yl)piperazine-1-carboxylate], for which the EC50 in test [1] (fluorescent calcium assay) was less than 100 nM; in test [2] (fluorescent calcium assay), 100 to 500 nM; in test [3] (fluorescent calcium assay), less than 100 nM.
Take `CCOC(=O)N1C[C@H](C)N(c2ncnc3c2c(-c2ccccn2)cn3-c2cccc(Cl)c2)C[C@H]1C` [Compound 118, Ethyl (2R,5S)-4-(7-(3-chlorophenyl)-5-(pyridin-2-yl)-7H-pyrrolo[2,3-d]pyrimidin-4-yl)-2,5-dimethylpiperazine-1-carboxylate]: the concentration giving a half-maximal response (EC50) is 100 to 500 nM in test [1] (fluorescent calcium assay), more than 2000 nM in test [2] (fluorescent calcium assay) and 500 to 2000 nM in test [3] (fluorescent calcium assay).
With `Cc1cn(-c2cncc(C#N)c2)c2ncnc(N3C[C@@H](C)N(C(=O)OC(C)(C)C)C[C@@H]3C)c12` [Compound 675, tert-butyl (2R,5S)-4-(7-(5-cyanopyridin-3-yl)-5-methyl-7H-pyrrolo[2,3-d]pyrimidin-4-yl)-2,5-dimethylpiperazine-1-carboxylate], the results for the EC50 in test [1], in test [2] and in test [3] were less than 100 nM, 100 to 500 nM and 100 to 500 nM, respectively.
On to `CC(C)c1cn(-c2cc(C(F)(F)F)ccn2)c2ncnc(N3C[C@@H](C)N(C(=O)OC(C)(C)C)C[C@@H]3C)c12` [Compound 699, tert-butyl (2R,5S)-4-(5-isopropyl-7-(4-(trifluoromethyl)pyridin-2-yl)-7H-pyrrolo[2,3-d]pyrimidin-4-yl)-2,5-dimethylpiperazine-1-carboxylate], for which the EC50 was less than 100 nM in test [1], 100 to 500 nM in test [2] and less than 100 nM in test [3].
Regarding `Cc1nccnc1-c1cn(-c2cc(F)cc(F)c2)c2ncnc(N3C[C@@H](C)N(C(=O)OC(C)(C)C)C[C@@H]3C)c12` [Compound 462, tert-butyl (2R,5S)-4-(7-(3,5-difluorophenyl)-5-(3-methylpyrazin-2-yl)-7H-pyrrolo[2,3-d]pyrimidin-4-yl)-2,5-dimethylpiperazine-1-carboxylate], the EC50 in test [1] (fluorescent calcium assay) was less than 100 nM; in test [2] (fluorescent calcium assay), 100 to 500 nM; in test [3] (fluorescent calcium assay) it was less than 100 nM.
`Cc1cn(-c2cc(F)ccn2)c2ncnc(N3C[C@@H](C)N(C(=O)OC(C)(C)C)C[C@@H]3C)c12` [Compound 480, tert-butyl (2R,5S)-4-(7-(4-fluoropyridin-2-yl)-5-methyl-7H-pyrrolo[2,3-d]pyrimidin-4-yl)-2,5-dimethylpiperazine-1-carboxylate]: the EC50 in test [1] (fluorescent calcium assay) is less than 100 nM; in test [2] (fluorescent calcium assay) it was 500 to 2000 nM; in test [3] (fluorescent calcium assay), less than 100 nM.
Turning to `C[C@H]1CN(C(=O)OC(C)(C)C)CCN1c1ncnc2c1c(C1CC1)cn2-c1cc(Cl)cc(Cl)c1` [Compound 129, tert-butyl (S)-4-(5-cyclopropyl-7-(3,5-dichlorophenyl)-7H-pyrrolo[2,3-d]pyrimidin-4-yl)-3-methylpiperazine-1-carboxylate], the EC50 in test [1] (fluorescent calcium assay) was less than 100 nM; in test [2] (fluorescent calcium assay), 100 to 500 nM; in test [3] (fluorescent calcium assay), less than 100 nM.
